Data as given in patent publication EP0787493A1, “Tetrahydroisoquinoline derivatives” (priority 1996, dated 1997).
Like-named read-outs stand apart in the source and are kept apart here.

Legend:
[1] = target: T1, NMDAR1C - NMDAR2B (Rattus norvegicus, UniProt P35439+Q00960); test: Electrophysiology on recombinant NMDA receptors expressed in oocytes; assay type: cell-based; details: Xenopus laevis oocytes, voltage clamp -80 mV; 15 µM Asp plus 0.2 µM Gly; read-out: Electrophysiology/IC50 (µM) oocytes NMDAR 1C & 2B
T1 construct: expressed in transfected cells; host or cells: Xenopus laevis oocytes injected with in vitro transcribed mRNA (1:1 mixture)
T1 sequence (Q00960 27-1482, other chains not shown): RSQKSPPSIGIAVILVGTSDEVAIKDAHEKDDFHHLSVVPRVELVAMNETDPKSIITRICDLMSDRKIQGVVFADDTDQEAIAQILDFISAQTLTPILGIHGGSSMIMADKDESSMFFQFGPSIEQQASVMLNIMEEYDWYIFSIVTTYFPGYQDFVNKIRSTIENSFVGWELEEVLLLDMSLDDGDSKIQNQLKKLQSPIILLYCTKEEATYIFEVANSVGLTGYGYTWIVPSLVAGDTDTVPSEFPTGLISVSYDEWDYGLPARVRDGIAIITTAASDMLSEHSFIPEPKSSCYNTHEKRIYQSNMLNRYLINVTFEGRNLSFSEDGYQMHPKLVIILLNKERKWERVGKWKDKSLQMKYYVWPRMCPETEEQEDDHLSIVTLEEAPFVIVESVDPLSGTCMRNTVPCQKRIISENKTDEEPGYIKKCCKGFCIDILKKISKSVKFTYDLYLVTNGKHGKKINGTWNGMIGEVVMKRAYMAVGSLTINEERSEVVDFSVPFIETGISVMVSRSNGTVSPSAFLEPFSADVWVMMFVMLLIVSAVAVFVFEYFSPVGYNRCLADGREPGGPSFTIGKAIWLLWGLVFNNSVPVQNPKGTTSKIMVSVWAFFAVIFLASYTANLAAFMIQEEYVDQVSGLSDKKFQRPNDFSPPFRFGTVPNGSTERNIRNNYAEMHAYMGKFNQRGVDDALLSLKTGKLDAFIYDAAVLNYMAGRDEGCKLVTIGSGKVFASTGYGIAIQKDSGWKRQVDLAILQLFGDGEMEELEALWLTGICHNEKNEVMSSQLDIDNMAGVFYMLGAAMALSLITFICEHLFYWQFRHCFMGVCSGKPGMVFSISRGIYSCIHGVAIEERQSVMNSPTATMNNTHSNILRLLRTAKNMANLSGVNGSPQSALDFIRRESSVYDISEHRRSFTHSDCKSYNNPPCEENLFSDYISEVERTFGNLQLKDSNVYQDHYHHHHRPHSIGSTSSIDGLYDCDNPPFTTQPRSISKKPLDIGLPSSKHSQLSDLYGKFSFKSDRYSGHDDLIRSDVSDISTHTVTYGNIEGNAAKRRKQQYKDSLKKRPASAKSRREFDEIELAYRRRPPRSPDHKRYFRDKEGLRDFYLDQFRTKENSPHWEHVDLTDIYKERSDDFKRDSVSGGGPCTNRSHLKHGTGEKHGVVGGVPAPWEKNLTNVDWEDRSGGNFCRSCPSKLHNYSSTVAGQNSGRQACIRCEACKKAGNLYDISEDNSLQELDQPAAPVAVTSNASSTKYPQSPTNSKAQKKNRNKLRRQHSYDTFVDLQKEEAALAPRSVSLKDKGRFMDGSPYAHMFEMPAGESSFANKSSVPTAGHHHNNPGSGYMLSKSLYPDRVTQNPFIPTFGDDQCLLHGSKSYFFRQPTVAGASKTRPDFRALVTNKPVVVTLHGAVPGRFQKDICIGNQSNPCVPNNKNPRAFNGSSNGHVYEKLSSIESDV
Excerpt: (§1) Electrophysiology on recombinant NMDA receptors.
(§2) cDNA clones coding for the subunits NMDAR1C and NMDAR2A of the NMDA receptor (see Hollmann and Heinemann, 1994, Annu. Rev. Neurosci. 17: 31 for nomenclature of NMDA receptor subunits) were isolated from a rat brain λgt11 cDNA library as published elsewhere (Sigel et al., 1994, J. Biol. Chem. 269:8204). The clone for the subunit NMDAR2B of the rat brain NMDA receptor was obtained from S.Nakanishi (Kyoto, Japan). The cDNAs were transcribed, capped and poly(A^+)-tailed as described previously (Malherbe et al., 1990, Mol. Brain Res. 8: 199). Oocytes of South African frogs (Xenopus laevis) were used for expressing either a combination of the NMDAR1C and NMDAR2A subunits or the NMDAR1C and NMDAR2B subunits. Approximately 3 fmol of a 1:1 mixture of the respective mRNA species were injected into every oocyte. Four to five days later the ion current through the NMDA receptor channels was measured in voltage clamp experiments (see Methfessel et al., 1986, Pflügers Arch. 407: 577 for the methods of oocyte expression and voltage-clamping). The membrane potential was clamped to -80 mV and the receptors were activated by applying a modified Ringer's solution containing the agonists L-asparatate (Asp) and glycine (Gly). Different agonist concentrations were chosen for either subunit combination to account for the different agonist sensitivities of the two types of receptors (70 µM Asp plus 2.5 µM Gly for NMDAR1C - NMDAR2A and 15 µM Asp plus 0.2 µM Gly for NMDAR1C - NMDAR2B). The agonists were applied for 15 s intervals once every 2.5 min by rapid superfusion of the oocyte. After a series of initial control stimuli increasing concentrations of the antagonist to be tested were added to both, the basal Ringer's and the agonist containing solution. For the data analysis the amplitude (y) of the agonist-induced current was plotted versus the concentration (x) of the antagonist and the logistic function y =A/[1 +(x/IC50)^H ] [formula] was fitted to the data to estimate the 50 % inhibitory concentration (IC50). Three to six oocytes were tested for every antagonist and if possible, at least 3 concentrations embracing the IC50 were applied to every oocyte. […] In two other cases a concentration of 0.1 µM produced a slowly increasing block which exceeded 50% after 30 min. […] Figures for the IC50 in all other cases are arithmetic mean values of individual IC50s determined by the logistic curve fits.

[2] = target: T2, NMDAR1C - NMDAR2A (Rattus norvegicus, UniProt P35439+Q00959); test: as above; assay type: cell-based; details: Xenopus laevis oocytes, voltage clamp -80 mV; 70 µM Asp plus 2.5 µM Gly; read-out: Electrophysiology/IC50 (µM) oocytes NMDAR 1C & 2A
T2 construct: expressed in transfected cells; host or cells: Xenopus laevis oocytes injected with in vitro transcribed mRNA (1:1 mixture)
T2 sequence (Q00959 23-1464, other chains not shown): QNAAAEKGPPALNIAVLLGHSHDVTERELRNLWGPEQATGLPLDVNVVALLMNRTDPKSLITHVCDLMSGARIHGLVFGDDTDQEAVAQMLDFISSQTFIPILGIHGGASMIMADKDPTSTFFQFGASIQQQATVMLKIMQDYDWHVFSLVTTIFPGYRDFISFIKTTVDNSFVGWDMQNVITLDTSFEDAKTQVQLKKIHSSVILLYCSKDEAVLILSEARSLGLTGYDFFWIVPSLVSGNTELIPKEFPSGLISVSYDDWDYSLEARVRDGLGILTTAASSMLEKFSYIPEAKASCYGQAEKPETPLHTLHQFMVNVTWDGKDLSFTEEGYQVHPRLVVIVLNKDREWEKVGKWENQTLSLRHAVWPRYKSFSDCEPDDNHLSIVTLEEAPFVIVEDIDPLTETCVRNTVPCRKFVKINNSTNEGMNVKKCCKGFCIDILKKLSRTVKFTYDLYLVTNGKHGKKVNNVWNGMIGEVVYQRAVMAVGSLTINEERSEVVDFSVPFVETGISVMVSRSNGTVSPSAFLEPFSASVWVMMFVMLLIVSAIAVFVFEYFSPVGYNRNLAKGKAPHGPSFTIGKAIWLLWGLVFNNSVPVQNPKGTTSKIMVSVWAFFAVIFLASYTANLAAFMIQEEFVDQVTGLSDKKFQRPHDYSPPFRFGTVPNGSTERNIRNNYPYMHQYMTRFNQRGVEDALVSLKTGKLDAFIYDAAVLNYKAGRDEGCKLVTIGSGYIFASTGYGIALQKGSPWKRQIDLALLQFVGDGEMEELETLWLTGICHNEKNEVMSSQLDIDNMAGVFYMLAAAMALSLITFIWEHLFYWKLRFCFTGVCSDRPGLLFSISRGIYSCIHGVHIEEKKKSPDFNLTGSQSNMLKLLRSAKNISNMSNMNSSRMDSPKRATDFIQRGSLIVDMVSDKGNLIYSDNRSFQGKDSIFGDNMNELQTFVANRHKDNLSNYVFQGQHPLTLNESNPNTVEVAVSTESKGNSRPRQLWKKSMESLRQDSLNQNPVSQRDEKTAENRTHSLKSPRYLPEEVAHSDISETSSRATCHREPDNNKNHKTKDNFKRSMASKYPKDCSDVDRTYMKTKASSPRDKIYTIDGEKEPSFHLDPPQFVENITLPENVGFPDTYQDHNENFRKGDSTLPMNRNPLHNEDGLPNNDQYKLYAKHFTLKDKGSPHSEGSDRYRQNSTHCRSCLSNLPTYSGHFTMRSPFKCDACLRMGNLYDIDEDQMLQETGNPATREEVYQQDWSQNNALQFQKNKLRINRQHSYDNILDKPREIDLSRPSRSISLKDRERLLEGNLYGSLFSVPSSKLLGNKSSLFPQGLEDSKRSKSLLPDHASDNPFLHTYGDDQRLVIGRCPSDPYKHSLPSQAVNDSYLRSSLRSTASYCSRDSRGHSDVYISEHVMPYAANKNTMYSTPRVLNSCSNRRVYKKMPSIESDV
Excerpt: as §1, §2

[3] = target: NMDA receptors; test: 3H-MK801 (Dizocilpine) binding in vitro; details: rat whole brain membranes, 5nM 3H-MK-801, glutamate, glycine and spermidine present
Description: 3H-MK801 (Dizocilpine) binding in vitro
The whole brain from 150-200g male rats, without cerebellum and without medulla oblongata was dissected on ice. The tissue was then homogenized with an Ultra-Turrax maximum speed during 30 seconds at 4°C in 50 volumes of cold Tris HCI 50mM, EDTA disodium 10mM, pH=7.4 buffer (wet weight/v). The homogenate was centrifuged at 48'000 x g (20'000 rpm, SS34, Sorvall RC5C) for 10 minutes. The pellet was rehomogenized with the same volume of buffer and the homogenate incubated at 37°C for 10 minutes. After centrifugation as above, the pellet was rehomogenized with the same volume of buffer and frozen at -80°C in 35 ml fractions for at least 16 hours and not more than 2 weeks.
For the binding experiment, the homogenate was centrifuged as above and the pellet was washed 3 times by homogenization in 25 volumes of cold Tris HCl 5mM, pH=7.4 buffer (Ultra-Turrax, maximum speed, 30 seconds) and centrifugation as above. The final pellet was rehomogenized in 25 volumes of buffer (original wet weight) and used as such in the assay. The final concentration of membrane in the assay was 20mg/ml (wet weight).
The incubation was performed in the presence of 1nM glutamate, glycine and spermidine. MK-801, (+)-[3-3H(N)], NEN (NET-972) 20Ci/mmol, was used at 5nM final concentration. Non specific binding was determined in presence of […] TCP. After 2 hours of incubation at room temperature, the suspension was filtered (Whatmann GF/B, soaked in 0.1% polyethylenimine for 2 hours) and washed 5 times with 3 ml of cold Tris HCl 5mM, pH=7.4 buffer. The air-dried filters were counted with 10ml of Ultima-gold (Packard) in a Tri-Carb 2500 TR scintillation counter after agitation.
The DPM were transformed in % of specific binding and these values were treated by a non linear regression calculation program (BINDING, H. Affolter, Switzerland) which provided the IC50 values for the low and high affinity binding sites (= concentrations producing half maximal inhibition at the respective sites). Each experiment was repeated at least three times and the final IC50 values were calculated as the mean +/-standard deviation of the individual experiments.
Reference: R.W. Ransom and N.L. Stec. Journal of Neurochemistry 51, 830-836, 1988.

[4] = high affinity binding site, read-out: 3H-MK 801 / IC50 (µM) high
[5] = low affinity binding site, read-out: 3H-MK 801 / IC50 (µM) low

| Compound | IC50 [1] [µM] | IC50 [2] [µM] | IC50 [3, 4] [µM] | IC50 [3, 5] [µM] |
| --- | --- | --- | --- | --- |
| COc1cc2c(cc1OC)C(CC(O)c1ccc(Cl)cc1)N(C)CC2 (single isomer, unassigned) [C, 1-(4-Chloro-phenyl)-2-(6,7-dimethoxy-2-methyl-1,2,3,4-tetrahydroisoquinolin-1-yl)-ethanol] | 0.043 | > 20 | 0.12 | 191 |
| COc1cc2c(cc1OC)C(CC(O)c1ccc(Cl)cc1)N(C)CC2 (single isomer, unassigned) [V] | – | – | 2.9 | 110 |
| COc1cc2c(cc1OC)C(CC(O)c1ccc(C)cc1)N(C)CC2 (stereo not shown) [A, 2-(6,7-Dimethoxy-2-methyl-1,2,3,4-tetrahydroisoquinolin-1-yl)-1-p-tolyl-ethanol] | ≤ 0.1 | > 100 | 0.04 | 223 |
| COc1cc2c(cc1OC)C(CCc1ccc(Cl)c(Cl)c1)N(C)CC2 (stereo not shown) [AA] | – | – | 4.62 | 185 |
| COc1cc2c(cc1O)C(CCc1ccc(Cl)cc1)N(C)CC2 (stereo not shown) [B, 1-[2-(4-Chloro-phenyl)-ethyl]-6-methoxy-2-methyl-1,2,3,4-tetrahydroisoquinolin-7-ol] | – | – | 0.09 | 54 |
| CN1CCc2cc(O)c(O)cc2C1CCc1ccc(Cl)cc1 (stereo not shown) [D, 1-[2-(4-Chloro-phenyl)-ethyl] -2-methyl-1,2,3,4-tetrahydro-isoquinoline-6,7-diol] | 0.28 | 19 | 0.29 | 116 |
| COc1cc2c(cc1OC)C(CCc1ccc(C)cc1)N(C)CC2 (stereo not shown) [E, 6,7-Dimethoxy-2-methyl-1-(2-p-tolyl-ethyl)-1,2,3,4-tetrahydroisoquinoline] | – | – | 0.34 | 129 |
| COc1cc2c(cc1OC)C(CCc1ccc(Cl)cc1)N(C)C1CCCCC21 (stereo not shown) [F, 6-[2-(4-Chloro-phenyl)-ethyl]-8,9-dimethoxy-5-methyl-1,2,3,4,4a,5,6,10b-octahydro-phenanthridine] | < 0.1 | > 30 | 0.4 | 315 |
| COc1cc2c(cc1OC)C(CC(O)c1ccc([N+](=O)[O-])cc1)N(C)CC2 (stereo not shown) [G, 2-(6,7-Dimethoxy-2-methyl-1,2,3,4-tetrahydroisoquinolin-1-yl)-1-(4-nitrophenyl)-ethanol] | – | – | 0.46 | 87 |
| COc1cc2c(cc1OC)C1CCCCC1NC2CCc1ccc(Cl)cc1 (stereo not shown) [H, 6-[2-(4-Chloro-phenyl)-ethyl]-8,9,dimethoxy-1,2,3,4,4a,5,6,10b-octahydrophenanthridine] | – | – | 0.5 | 589 |
| COc1ccc(C(O)CC2c3cc(OC)c(OC)cc3CCN2C)cc1 (stereo not shown) [I] | – | – | 0.59 | 146 |
| COc1cc2c(cc1OC)C(CC(O)c1cc(Cl)c(Cl)cc1Cl)N(C)CC2 (stereo not shown) [K] | – | – | 0.91 | 613 |
| COc1cc2c(cc1OC)C(CCc1ccc(Br)cc1)N(C)CC2 (stereo not shown) [L] | – | – | 1.37 | 198 |
| COc1ccc(CCC2c3cc(OC)c(OC)cc3CCN2C)cc1 (stereo not shown) [M] | – | – | 1.39 | 95 |
| COc1cc2c(cc1OC)C(CCc1ccc(C(C)C)cc1)N(C)CC2 (stereo not shown) [N] | – | – | 1.59 | 370 |
| COc1cc2c(cc1OC)C(CCc1ccc([N+](=O)[O-])cc1)N(C)CC2 (stereo not shown) [O] | – | – | 1.6 | 101 |
| CN1CCc2cc3c(cc2C1CCc1ccc(Cl)cc1)OCO3 (stereo not shown) [P] | – | – | 1.7 | 95 |
| COc1cc2c(cc1OC)C(CC(OC(C)=O)c1ccc(Cl)cc1)N(C)CC2 (stereo not shown) [Q] | 1.2 | 21 | 1.76 | 161 |
| COc1cc2c(cc1OC)C(CCc1ccccc1)N(C)CC2 (stereo not shown) [R] | – | – | 2.1 | 147 |
| CCC(=O)OC(CC1c2cc(OC)c(OC)cc2CCN1C)c1ccc(Cl)cc1 (stereo not shown) [S] | – | – | 2.18 | 123 |
| CN1CCc2cc(O)c(O)cc2C1CCc1ccc(Cl)c(Cl)c1 (stereo not shown) [T] | – | – | 2.31 | 56 |
| COc1cc2c(cc1OC)C(CCc1ccc([N+](=O)[O-])cc1)N(C)CC2 (stereo not shown) [U] | – | – | 2.71 | 87 |
| COc1ccc2c(c1OC)CCN(C)C2CCc1ccc(Cl)cc1 (stereo not shown) [W] | – | – | 3.6 | 129 |
| Cc1cc2c(cc1C)C(CCc1ccc(Cl)cc1)N(C)C(C)C2 (stereo not shown) [X] | – | – | 3.87 | 2230 |
